In patent US20070082908A1, “Bicycle pyrazole derivative” (DAINIPPON SUMITOMO PHARMA CO., LTD., priority 2003, published 2007) one finds IC50 data, which are given here for 25 compounds.

Structures can show the parent of a compound that is named as a salt.

The test has as its target T1, human DPP IV (Homo sapiens, UniProt P27487).
T1 construct: Human serum containing DPP-IV enzyme was used in an experiment after being diluted with assay buffer; from tissue; host or cells: human serum (diluted 10-fold)
Nature of the test: In vitro DPP-IV inhibitory effect measurement test (human serum, fluorogenic substrate Gly-Pro-MCA). Format: biochemical. Conditions: human serum diluted 10-fold as enzyme source; substrate Glycyl-L-Proline 4-Methyl-Coumaryl-7-Amide 100 μM; room temperature; read-out: Inhibitory activity against human DPP IV IC50. Here is the method:
In Vitro DPP-IV Inhibitory Effect Measurement Test
Human serum containing DPP-IV enzyme was used in an experiment after being diluted with assay buffer (25 mM Tris-HCl, 140 mM NaCl, 10 mM KCl, pH 7.9) (finally, diluted 10-fold). Each of solutions of each test compound having various concentrations was added to the diluted serum and the resulting mixture was incubated at room temperature. Then, a substrate (Glycyl-L-Proline 4-Methyl-Coumaryl-7-Amide, Peptide Laboratories Co., Ltd.) was added thereto to a final concentration of 100 μM and the reaction was carried out at room temperature. Acetic acid was added to the reaction mixture to a final concentration of 12.5% to terminate the reaction, and the intensity of fluorescence at an excitation wavelength of 360 nm and a measuring wavelength of 460 nm was measured by the use of a fluorescent plate reader. A compound concentration for 50% inhibition was calculated as an IC50 value from enzyme inhibitory activity values obtained by adding each test compound to a plurality of concentrations.

T1 sequence (P27487 39-766 limits assumed): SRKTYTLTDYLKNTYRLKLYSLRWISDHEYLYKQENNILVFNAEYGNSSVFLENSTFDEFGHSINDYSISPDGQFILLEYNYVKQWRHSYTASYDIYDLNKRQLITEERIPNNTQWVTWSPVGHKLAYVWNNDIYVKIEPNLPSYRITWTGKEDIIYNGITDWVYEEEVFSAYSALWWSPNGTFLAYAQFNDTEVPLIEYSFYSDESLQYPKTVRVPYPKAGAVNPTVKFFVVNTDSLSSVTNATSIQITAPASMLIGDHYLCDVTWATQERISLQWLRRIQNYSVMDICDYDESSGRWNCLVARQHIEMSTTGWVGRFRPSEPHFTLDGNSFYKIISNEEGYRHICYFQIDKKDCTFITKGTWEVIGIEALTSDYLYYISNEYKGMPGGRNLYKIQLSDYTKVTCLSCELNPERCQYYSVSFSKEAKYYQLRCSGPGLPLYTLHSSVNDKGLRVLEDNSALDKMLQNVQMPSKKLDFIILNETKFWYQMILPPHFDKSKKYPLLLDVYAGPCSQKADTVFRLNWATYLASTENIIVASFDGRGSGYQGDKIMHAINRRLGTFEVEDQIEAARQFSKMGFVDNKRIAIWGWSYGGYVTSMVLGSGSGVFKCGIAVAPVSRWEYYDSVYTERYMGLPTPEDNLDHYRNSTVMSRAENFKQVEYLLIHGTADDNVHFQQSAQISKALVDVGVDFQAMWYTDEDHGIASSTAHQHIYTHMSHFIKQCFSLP

As usually defined, the IC50 is the concentration needed to halve the response being measured. As for `N#Cc1ccccc1Cn1ccn2nc(N3CCC[C@@H](N)C3)c(Cc3ccccc3Cl)c2c1=O` [Example 12], the 50% inhibitory concentration (IC50) turned out to be 0.024 µM.
As for `COC(=O)Cc1c(C(=O)OC)[nH]c(=O)c2c(Cc3ccccc3Cl)c(N3CCC[C@@H](N)C3)nn12` [Example 38, Methyl 2-[(3R)-3-aminopiperidin-1-yl]-3-(2-chlorobenzyl)-7-(2-methoxy-2-oxoethyl)-4-oxo-4,5-dihydropyrazolo[1,5-a]pyrazine-6-carboxylate hydrochloride], the IC50 was determined as 0.0096 µM.
`COC(=O)c1cn2nc(N3CCC[C@@H](N)C3)c(Cc3ccccc3Cl)c2c(=O)[nH]1` [Example 16]: the IC50 came to 0.0025 µM.
To `COC(=O)c1[nH]c(=O)c2c(Cc3ccccc3Cl)c(N3CCC[C@@H](N)C3)nn2c1C` [Example 1, Methyl 2-[(3R)-3-aminopiperidin-1-yl]-3-(2-chlorobenzyl)-7-methyl-4-oxo-4,5-dihydropyrazolo[1,5-a]pyrazine-6-carboxylate hydrochloride] belongs 0.02 µM.
`COc1cccc(C(=O)Cn2ccn3nc(N4CCC[C@@H](N)C4)c(Cc4ccccc4Cl)c3c2=O)c1` [Example 13]: the IC50 came to 0.0061 µM.
The same measure for `N[C@@H]1CCCN(c2nn3cnn(CC(=O)c4ccccc4)c(=O)c3c2Cc2ccccc2Cl)C1` [Example 34, 2-[(3R)-3-Aminopiperidin-1-yl]-3-(2-chlorobenzyl)-5-(2-oxo-2-phenylethyl)pyrazolo[1,5-d][1,2,4]triazin-4(5H)-one hydrochloride]: 0.0028 µM; for `Cn1ncn2nc(N3CCC[C@@H](N)C3)c(Cc3ccccc3Cl)c2c1=O` [Example 33, 2-[(3R)-3-Aminopiperidin-1-yl]-3-(2-chlorobenzyl)-5-methylpyrazolo[1,5-d][1,2,4]triazin-4(5H)-one hydrochloride]: 0.012 µM.
To `N[C@@H]1CCCN(c2nn3ccn(Cc4nccc5ccccc45)c(=O)c3c2Cc2ccccc2Cl)C1` [Example 10] belongs 0.0028 µM; to `Cc1c(C)n2nc(N3CCC[C@@H](N)C3)c(Cc3ccccc3Cl)c2c(=O)n1CC(=O)c1ccccc1` [Example 18], 0.045 µM; to `CCOC(=O)c1cn2nc(N3CCC[C@@H](N)C3)c(Cc3ccccc3Cl)c2c(=O)[nH]1` [Example 41, Ethyl 2-[(3R)-3-aminopiperidin-1-yl]-3-(2-chlorobenzyl)-4-oxo-4,5-dihydropyrazolo[1,5-a]pyrazine-6-carboxylate hydrochloride], 0.0021 µM.
Take `N[C@@H]1CCCN(c2nn3cc(C(=O)O)[nH]c(=O)c3c2Cc2cc(F)ccc2Cl)C1` [Example 7, 2-[(3R)-3-Aminopiperidin-1-yl]-3-(2-chloro-5-fluorobenzyl)-4-oxo-4,5-dihydropyrazolo[1,5-a]pyrazine-6-carboxylic acid methanesulfonate]: the concentration for half-maximal inhibition (IC50) was 0.0007 µM.
Take `N[C@@H]1CCCN(c2nn3cc[nH]c(=O)c3c2Cc2ccccc2Cl)C1` [Example 3, 2-[(3R)-3-Aminopiperidin-1-yl]-3-(2-chlorobenzyl)pyrazolo[1,5-a]pyrazin-4(5H)-one hydrochloride]: the IC50 was determined as 0.03 µM.
On to `Cn1c(C#N)cn2nc(N3CCC[C@@H](N)C3)c(Cc3ccccc3Cl)c2c1=O` [Example 20], for which the IC50 is 0.005 µM.
To `CCOC(=O)c1cn2nc(N3CCC[C@@H](N)C3)c(Cc3cc(F)ccc3Cl)c2c(=O)[nH]1` [Example 32, Ethyl 2-[(3R)-3-aminopiperidin-1-yl]-3-(2-chloro-5-fluorobenzyl)-4-oxo-4,5-dihydropyrazolo[1,5-a]pyrazine-6-carboxylate methanesulfonate] belongs 0.0009 µM; to `N[C@@H]1CCCN(c2nn3ccn(CCc4ccccc4)c(=O)c3c2Cc2ccccc2Cl)C1` [Example 14], 0.061 µM.
To `Cc1cn2nc(N3CCC[C@@H](N)C3)c(Cc3ccccc3Cl)c2c(=O)n1C` [Example 4, 2-[(3R)-3-Aminopiperidin-1-yl]-3-(2-chlorobenzyl)-5,6-dimethylpyrazolo[1,5-a]pyrazin-4(5H)-one hydrochloride] belongs 0.037 µM; to `N[C@@H]1CCCN(c2nn3cc(-c4ccccc4)[nH]c(=O)c3c2Cc2ccccc2Cl)C1` [Example 5, 2-[(3R)-3-Aminopiperidin-1-yl]-3-(2-chlorobenzyl)-6-phenylpyrazolo[1,5-a]pyrazin-4(5H)-one hydrochloride], 0.082 µM.
For `N[C@@H]1CCCN(c2nn3cc(C(=O)O)[nH]c(=O)c3c2Cc2ccccc2Cl)C1` [Example 17], the half-inhibitory concentration (IC50) worked out at 0.0016 µM.
To `N[C@@H]1CCCN(c2nn3ccn(CC(=O)c4ccccc4)c(=O)c3c2Cc2ccccc2Cl)C1` [Example 8, 2-[(3R)-3-Aminopiperidin-1-yl]-3-(2-chlorobenzyl)-5-(2-oxo-2-phenylethyl)pyrazolo[1,5-a]pyrazin-4(5H)-one hydrochloride] belongs 0.007 µM.
On to `CCc1cn2nc(N3CCC[C@@H](N)C3)c(Cc3ccccc3Cl)c2c(=O)n1CC(=O)c1ccccc1` [Example 26], for which the IC50 amounted to 0.028 µM.
The same measure for `COc1ccccc1C(=O)Cn1ccn2nc(N3CCC[C@@H](N)C3)c(Cc3ccccc3Cl)c2c1=O` [Example 9]: 0.071 µM.
To `N[C@@H]1CCCN(c2nn3cn[nH]c(=O)c3c2Cc2ccccc2Cl)C1` [Example 19] belongs 0.015 µM.
To `CC(C)Oc1cccc(C(=O)Cn2ccn3nc(N4CCC[C@@H](N)C4)c(Cc4ccccc4Cl)c3c2=O)c1` [Example 11] belongs 0.025 µM.
As to `N[C@@H]1CCCN(c2nn3cnn(Cc4nccc5ccccc45)c(=O)c3c2Cc2ccccc2Cl)C1` [Example 35, 2-[(3R)-3-Aminopiperidin-1-yl]-3-(2-chlorobenzyl)-5-(isoquinolin-1-ylmethyl)pyrazolo[1,5-d][1,2,4]triazin-4(5H)-one hydrochloride], the IC50 came out at 0.0023 µM.
`Cn1c(C(N)=O)cn2nc(N3CCC[C@@H](N)C3)c(Cc3ccccc3Cl)c2c1=O` [Example 21]: the 50% inhibitory concentration (IC50) turned out to be 0.013 µM.
